Measured values from PubChem BioAssay (NCI).
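1) Cells in 96-well plates. 2) Compound, 48 h, 5 concentrations. 3) Linear interpolation between surrounding doses. 4) Unreached endpoint = highest concentration. TGI marks complete inhibition of growth.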

What was measured:
Experiment in all cases: NCI anticancer screen, dose series, 48 h
HCC-2998 colon = test system: HCC-2998 colon
HOP-92 NSCLC = test system: HOP-92 NSCLC
BT-549 breast = test system: BT-549 breast
HT29 colon = test system: HT29 colon
MOLT-4 leukemia = test system: MOLT-4 leukemia
EKVX NSCLC = test system: EKVX NSCLC
RPMI-8226 leukemia = test system: RPMI-8226 leukemia
A498 renal = test system: A498 renal
SK-MEL-28 melanoma = test system: SK-MEL-28 melanoma
M14 melanoma = test system: M14 melanoma
SN12C renal = test system: SN12C renal
U251 CNS = test system: U251 CNS
NCI-H226 lung = test system: NCI-H226 lung
NCI/ADR-RES ovarian = test system: NCI/ADR-RES ovarian
NCI-H23 lung = test system: NCI-H23 lung
MDA-MB-231 breast = test system: MDA-MB-231 breast
786-0 renal = test system: 786-0 renal
NCI-H522 lung = test system: NCI-H522 lung
MALME-3M melanoma = test system: MALME-3M melanoma
PC-3 prostate = test system: PC-3 prostate
SW-620 colon = test system: SW-620 colon
HCT-15 colon = test system: HCT-15 colon
OVCAR-8 ovarian = test system: OVCAR-8 ovarian
UACC-62 melanoma = test system: UACC-62 melanoma
SK-MEL-2 melanoma = test system: SK-MEL-2 melanoma
COLO 205 colon = test system: COLO 205 colon
IGROV1 ovarian = test system: IGROV1 ovarian
ACHN renal = test system: ACHN renal
T-47D breast = test system: T-47D breast
KM12 colon = test system: KM12 colon
UO-31 renal = test system: UO-31 renal
OVCAR-4 ovarian = test system: OVCAR-4 ovarian
SNB-75 CNS = test system: SNB-75 CNS
SF-268 CNS = test system: SF-268 CNS
HL-60(TB) leukemia = test system: HL-60(TB) leukemia
HS 578T breast = test system: HS 578T breast
SF-539 CNS = test system: SF-539 CNS
OVCAR-3 ovarian = test system: OVCAR-3 ovarian
MCF7 breast = test system: MCF7 breast
A549 NSCLC = test system: A549 NSCLC
HCT-116 colon = test system: HCT-116 colon
MDA-N = test system: MDA-N
SF-295 CNS = test system: SF-295 CNS
SK-MEL-5 melanoma = test system: SK-MEL-5 melanoma
RXF 393 renal = test system: RXF 393 renal
TK-10 renal = test system: TK-10 renal
NCI-H460 lung = test system: NCI-H460 lung
CCRF-CEM leukemia = test system: CCRF-CEM leukemia
SNB-19 CNS = test system: SNB-19 CNS
K-562 leukemia = test system: K-562 leukemia
MDA-MB-435 = test system: MDA-MB-435
OVCAR-5 ovarian = test system: OVCAR-5 ovarian
UACC-257 melanoma = test system: UACC-257 melanoma
SK-OV-3 ovarian = test system: SK-OV-3 ovarian
HOP-62 NSCLC = test system: HOP-62 NSCLC
DU-145 prostate = test system: DU-145 prostate
LOX IMVI melanoma = test system: LOX IMVI melanoma
CAKI-1 renal = test system: CAKI-1 renal

## O=C1C(Cl)=C(Cl)C(=O)C2=C1C1c3ccccc3C2c2ccccc21
HCC-2998 colon
  TGI: > 100 µM
HOP-92 NSCLC
  TGI: 43.5 µM
BT-549 breast
  TGI: > 100 µM
HT29 colon
  TGI: > 100 µM
MOLT-4 leukemia
  TGI: > 100 µM
EKVX NSCLC
  TGI: > 100 µM
RPMI-8226 leukemia
  TGI: 53.5 µM
A498 renal
  TGI: > 100 µM
SK-MEL-28 melanoma
  TGI: > 100 µM
M14 melanoma
  TGI: > 100 µM
SN12C renal
  TGI: > 100 µM
U251 CNS
  TGI: 45.4 µM
NCI-H226 lung
  TGI: > 100 µM
NCI/ADR-RES ovarian
  TGI: > 100 µM
NCI-H23 lung
  TGI: > 100 µM
MDA-MB-231 breast
  TGI: 65.2 µM
786-0 renal
  TGI: 47.4 µM
NCI-H522 lung
  TGI: 33 µM
MALME-3M melanoma
  TGI: 57.7 µM
PC-3 prostate
  TGI: > 100 µM
SW-620 colon
  TGI: 59.5 µM
HCT-15 colon
  TGI: > 100 µM
OVCAR-8 ovarian
  TGI: > 100 µM
UACC-62 melanoma
  TGI: 79.9 µM
SK-MEL-2 melanoma
  TGI: > 100 µM
COLO 205 colon
  TGI: 61.4 µM
IGROV1 ovarian
  TGI: > 100 µM
ACHN renal
  TGI: > 100 µM
T-47D breast
  TGI: 60.1 µM
KM12 colon
  TGI: > 100 µM
UO-31 renal
  TGI: > 100 µM
OVCAR-4 ovarian
  TGI: > 100 µM
SNB-75 CNS
  TGI: > 100 µM
SF-268 CNS
  TGI: > 100 µM
HL-60(TB) leukemia
  TGI: 52.5 µM
HS 578T breast
  TGI: > 100 µM
SF-539 CNS
  TGI: 65.9 µM
OVCAR-3 ovarian
  TGI: > 100 µM
MCF7 breast
  TGI: > 100 µM
A549 NSCLC
  TGI: > 100 µM
HCT-116 colon
  TGI: > 100 µM
MDA-N
  TGI: > 100 µM
SF-295 CNS
  TGI: > 100 µM
SK-MEL-5 melanoma
  TGI: > 100 µM
RXF 393 renal
  TGI: 75.2 µM
TK-10 renal
  TGI: > 100 µM
NCI-H460 lung
  TGI: 99.2 µM
CCRF-CEM leukemia
  TGI: > 100 µM
SNB-19 CNS
  TGI: > 100 µM
K-562 leukemia
  TGI: > 100 µM
MDA-MB-435
  TGI: > 100 µM
OVCAR-5 ovarian
  TGI: > 100 µM
UACC-257 melanoma
  TGI: > 100 µM
SK-OV-3 ovarian
  TGI: > 100 µM
HOP-62 NSCLC
  TGI: 59.4 µM
DU-145 prostate
  TGI: > 100 µM

## Cc1cnc(-n2c(C)nc3cc(Cl)ccc3c2=O)s1
HCC-2998 colon
  TGI: 96.1 µM
HOP-92 NSCLC
  TGI: > 100 µM
LOX IMVI melanoma
  TGI: > 100 µM
BT-549 breast
  TGI: > 100 µM
HT29 colon
  TGI: > 100 µM
CAKI-1 renal
  TGI: > 100 µM
MOLT-4 leukemia
  TGI: > 100 µM
EKVX NSCLC
  TGI: 35.8 µM
A498 renal
  TGI: 61.7 µM
SK-MEL-28 melanoma
  TGI: > 100 µM
M14 melanoma
  TGI: > 100 µM
SN12C renal
  TGI: > 100 µM
U251 CNS
  TGI: > 100 µM
NCI-H226 lung
  TGI: 93.8 µM
NCI/ADR-RES ovarian
  TGI: 94.5 µM
NCI-H23 lung
  TGI: 97.7 µM
MDA-MB-231 breast
  TGI: > 100 µM
786-0 renal
  TGI: > 100 µM
NCI-H522 lung
  TGI: 92.1 µM
MALME-3M melanoma
  TGI: > 100 µM
PC-3 prostate
  TGI: > 100 µM
SW-620 colon
  TGI: > 100 µM
HCT-15 colon
  TGI: > 100 µM
OVCAR-8 ovarian
  TGI: > 100 µM
UACC-62 melanoma
  TGI: 68.1 µM
SK-MEL-2 melanoma
  TGI: > 100 µM
COLO 205 colon
  TGI: 40.2 µM
IGROV1 ovarian
  TGI: > 100 µM
ACHN renal
  TGI: 90.9 µM
T-47D breast
  TGI: 68.9 µM
KM12 colon
  TGI: > 100 µM
UO-31 renal
  TGI: 4.13 µM
OVCAR-4 ovarian
  TGI: > 100 µM
SNB-75 CNS
  TGI: 70.4 µM
SF-268 CNS
  TGI: > 100 µM
HL-60(TB) leukemia
  TGI: > 100 µM
HS 578T breast
  TGI: > 100 µM
SF-539 CNS
  TGI: 55.3 µM
OVCAR-3 ovarian
  TGI: > 100 µM
MCF7 breast
  TGI: 56.5 µM
A549 NSCLC
  TGI: > 100 µM
HCT-116 colon
  TGI: 65.6 µM
MDA-N
  TGI: 56.8 µM
SF-295 CNS
  TGI: > 100 µM
SK-MEL-5 melanoma
  TGI: 34 µM
TK-10 renal
  TGI: > 100 µM
NCI-H460 lung
  TGI: > 100 µM
CCRF-CEM leukemia
  TGI: > 100 µM
SNB-19 CNS
  TGI: > 100 µM
K-562 leukemia
  TGI: > 100 µM
MDA-MB-435
  TGI: > 100 µM
OVCAR-5 ovarian
  TGI: > 100 µM
UACC-257 melanoma
  TGI: 99.6 µM
SK-OV-3 ovarian
  TGI: > 100 µM
HOP-62 NSCLC
  TGI: > 100 µM
DU-145 prostate
  TGI: 66.4 µM
